Patent EP3366286A1, “COMPOUNDS FOR TREATING SEPSIS” (Keller, Johannes, priority 2017, dated 2018)
“Also recorded” adds a separate entry of the source.

Tests used:
[1] = tested on: bone marrow-derived macrophages; assay: Cytokine mRNA expression (qRT-PCR) in primary macrophages stimulated with LPS and/or PCT; assay type: cell-based, mouse; details: macrophages in vitro, LPS plus PCT, mRNA levels (Figure 5C)
Procedure: RNA was isolated using the RNeasyMini kit (Qiagen). For qRT-PCR expression analysis, 1 µg of RNA was reverse transcribed using SuperScriptIII (Invitrogen) according to the manufacturer's instructions. qRT-PCR analysis was performed using predesigned TaqMan gene expression assays (Applied Biosystems) and Gapdh as internal control.
Primary macrophages were generated from bone marrow cells cultured in DMEM supplemented 10% FCS and 40 ng/ml M-CSF for 7 days. Primary DC were generated from mouse bone marrow cells which were grown in RPMI 1640 medium with 10% FBS supplemented with 100 U/ml GM-CSF and 20 ng/ml IL-4 for 7 days. For γδT cell preparations, spleens were dissected and processed through a 40-µm filter, followed by lysis of erythrocytes. γδT lymphocytes were subsequently purified using magnetic labeled beads (Miltenyi Biotec, #130-092-125). For the generation of primary osteoblasts, bone marrow cells were differentiated for 10 days in the presence of 25 µg/ml ascorbic acid and 5 mM β-glycerophosphate as described previously (Keller, J., et al. Calcitonin controls bone formation by inhibiting the release of sphingosine 1-phosphate from osteoclasts. Nat Commun 5, 5215 (2014)). […]

[2] = tested on: WT mice; assay: Serum cytokine levels (ELISA) after sublethal LPS challenge; assay type: in vivo; details: 10 h after 10 mg/kg LPS, single injection of 100 mg/kg ip (Figure 5D)
Procedure: (§1) Nat Protoc 4, 31-36 (2009). Briefly, an approximately 1 cm abdominal midline incision was made, followed by exposure of the cecum. After ligation, the cecum was punctured three times through and through with a 19-gauge needle and a small portion of feces was pressed out. After repositioning of the bowel, the abdomen was closed in layers using surgical sutures and metallic clips, and 1 ml of 0.9% NaCl (37° Celsius) was slowly injected subcutaneously for resuscitation. For induction of lethal endotoxemia, mice received an intraperitoneal (ip) injection of 40 mg/kg LPS. Survival was monitored at least every 6 h for 7 days after which the experiments were terminated. For pharmacologic proof-of-principle experiments involving II17a, mice received 100 µg/kg PCT and/or 2.5 µg/kg antibody treatment ip 30 minutes before and 12h after induction of septic shock through 40 mg/kg LPS ip. Non-specific IgG was used at equal concentrations. Olcegepant (100 mg/kg) was administered intraperitoneally or subcutaneously as indicated. For in vivo experiments involving expression, histological, and FACS analyses, mice were challenged with a sublethal dose of LPS (10 mg/kg ip). […]
Serum was obtained by cardiac puncture. […] Serum concentrations of PCT, CT and CGRP were measured by ELISA (Kamiya #KT-25866, Bachem #S-1488.0001 BA, S-1167.0001 BA).

[3] = tested on: WT mice; assay: Survival in lethal endotoxemia (40 mg/kg LPS ip), monitored for 7 days; assay type: in vivo
Procedure: Nat Protoc 4, 31-36 (2009). Briefly, an approximately 1 cm abdominal midline incision was made, followed by exposure of the cecum. After ligation, the cecum was punctured three times through and through with a 19-gauge needle and a small portion of feces was pressed out. After repositioning of the bowel, the abdomen was closed in layers using surgical sutures and metallic clips, and 1 ml of 0.9% NaCl (37° Celsius) was slowly injected subcutaneously for resuscitation. For induction of lethal endotoxemia, mice received an intraperitoneal (ip) injection of 40 mg/kg LPS. Survival was monitored at least every 6 h for 7 days after which the experiments were terminated. For pharmacologic proof-of-principle experiments involving II17a, mice received 100 µg/kg PCT and/or 2.5 µg/kg antibody treatment ip 30 minutes before and 12h after induction of septic shock through 40 mg/kg LPS ip. Non-specific IgG was used at equal concentrations. Olcegepant (100 mg/kg) was administered intraperitoneally or subcutaneously as indicated. For in vivo experiments involving expression, histological, and FACS analyses, mice were challenged with a sublethal dose of LPS (10 mg/kg ip). The use of in vivo experiments, especially CLP, was kept to a minimum throughout the study (replace, reduce, refine) in accordance to current recommendations for animal welfare in sepsis research (Lilley 2015). Experimental procedures were performed with approval from the animal care committees of the University Medical Center Hamburg-Eppendorf and the Behörde für Umwelt und Gesundheit der Hansestadt Hamburg.
The number of samples was chosen according to established standards providing sufficient statistical power to enable the detection of biologically relevant differences in animal models. Data were analyzed by two-tailed Student's t-test using Excel software. In the case of multiple comparisons, Bonferroni correction was used. Survival analyses were performed using the log-rank-test. If not indicated otherwise, all data are reported as mean ± SD. p<0.05 was considered statistically significant.

[4] = tested on: WT mice; assay: Survival after cecal ligation and puncture (CLP); assay type: in vivo; details: 100 mg/kg subcutaneous every 12h (Figure 5F)
Procedure: as §1, with “indicated.” for “indicated. For in vivo experiments involving expression, histological, and FACS analyses, mice were challenged with a sublethal dose of LPS (10 mg/kg ip).”
(§2) The number of samples was chosen according to established standards providing sufficient statistical power to enable the detection of biologically relevant differences in animal models. Data were analyzed by two-tailed Student's t-test using Excel software. […]

[5] = tested on: Calca-deficient mice; assay: Survival in lethal endotoxemia (40 mg/kg LPS ip); assay type: in vivo; details: 100 mg/kg ip co-administered with (immediately before) 40 mg/kg LPS ip (Figure 5G)
Procedure: as §1, with “indicated.” for “indicated. For in vivo experiments involving expression, histological, and FACS analyses, mice were challenged with a sublethal dose of LPS (10 mg/kg ip).”
as §2

[6] = tested on: αCgrp-deficient mice; assay: Survival in lethal endotoxemia (40 mg/kg LPS ip); assay type: in vivo; details: 100 mg/kg ip immediately before 40 mg/kg LPS (Figure 5H)
Procedure: as §1, with “indicated.” for “indicated. For in vivo experiments involving expression, histological, and FACS analyses, mice were challenged with a sublethal dose of LPS (10 mg/kg ip).”
as §2

In the case of `NCCCC[C@H](NC(=O)[C@@H](Cc1cc(Br)c(O)c(Br)c1)NC(=O)N1CCC(N2Cc3ccccc3NC2=O)CC1)C(=O)N1CCN(c2ccncc2)CC1` [olcegepant, N-((1R)-2-(((1S)-5-amino-1-((4-(pyridin-4-yl)piperazin-1-yl)carbonyl)pentyl)amino)-1-(3,5-dibromo-4-hydroxybenzyl)-2-oxoethyl)-4-(2-oxo-1,4-dihydroquinazolin-3(2H)-yl)piperidine-1-carboxamide], the “LPS-dependent stimulatory effect of PCT on II1b expression” value [1] is reported as “inhibited”, the “LPS-dependent stimulatory effect of PCT on II6 expression” value [1] is reported as “inhibited” and the II1b levels [2] is reported as “significant reduction”. The II17a levels [2] was “significant reduction”, the mortality ([3]; 100 mg/kg ip immediately before 40 mg/kg LPS ip (Figure 5E)) was “significant reduction of mortality” and the survival ([3]; intermittent subcutaneous treatment 100 mg/kg every 12 hours, starting 4h after ip LPS challenge (Figure 5I)) was “significantly prolonged survival”. The mortality ([3]; single 100 mg/kg ip 4h after 40 mg/kg LPS ip, into the inflamed peritoneal cavity (Figure 12)) was “increased mortality; also recorded: decreased survival”, the survival ([3]; single subcutaneous injection 100 mg/kg 4h after ip LPS challenge (Figure 5I)) was “trend towards improved survival” and the survival ([3]; subcutaneous 4h before LPS (40 mg/kg ip), prophylactic (Figure 5J)) was “favorable effect”. The mortality [4] was “significantly reduced”, the survival [5] was “did not further improve the survival” and the mortality rates [6] was “significantly improved mortality rates”.
